Settings: 303.15 K, Liquid, Vibrating tube method

CCCCCC(=O)OCC(COC(=O)CCCCC)(COC(=O)CCCCC)COC(=O)CCCCC [pentaerythritol tetrahexanoate]
Settings | mass density [kg/m3]
20855 kPa | 1001
20888 kPa | 1001.2
20914 kPa | 1001.2
20942 kPa | 1001.1
20975 kPa | 1001.1
21003 kPa | 1001.2
21057 kPa | 1001.1
21090 kPa | 1001.2
21118 kPa | 1001.3
21151 kPa | 1001.3
21178 kPa | 1001.2
21207 kPa | 1001.4
21241 kPa | 1001.3
21268 kPa | 1001.5
21297 kPa | 1001.3
21331 kPa | 1001.4
21360 kPa | 1001.3
21388 kPa | 1001.4
21422 kPa | 1001.4
21451 kPa | 1001.6
21480 kPa | 1001.5
21514 kPa | 1001.5
21543 kPa | 1001.5
21572 kPa | 1001.4
21607 kPa | 1001.6
21636 kPa | 1001.5
21665 kPa | 1001.5
21701 kPa | 1001.5
21731 kPa | 1001.6
21761 kPa | 1001.6
21796 kPa | 1001.7
21826 kPa | 1001.7
21855 kPa | 1001.7
21885 kPa | 1001.6
21921 kPa | 1001.7
21951 kPa | 1001.7
21981 kPa | 1001.8
22018 kPa | 1001.8
22048 kPa | 1001.8
22079 kPa | 1001.8
22116 kPa | 1001.9
22149 kPa | 1001.8
22180 kPa | 1001.9
22211 kPa | 1002
22242 kPa | 1001.8
22280 kPa | 1001.9
22311 kPa | 1002
22348 kPa | 1002
22379 kPa | 1002
22411 kPa | 1002.1
22442 kPa | 1002
22481 kPa | 1002.1
22513 kPa | 1002
22546 kPa | 1002
22581 kPa | 1002.1
22619 kPa | 1002.2
22651 kPa | 1002.1
22683 kPa | 1002.2
22715 kPa | 1002.2
22754 kPa | 1002.2
22786 kPa | 1002.3
22819 kPa | 1002.3
22858 kPa | 1002.4
22891 kPa | 1002.2
22930 kPa | 1002.3
22964 kPa | 1002.4
22998 kPa | 1002.3
23032 kPa | 1002.4
23072 kPa | 1002.4
23106 kPa | 1002.3
23140 kPa | 1002.4
23181 kPa | 1002.4
23215 kPa | 1002.5
23256 kPa | 1002.4
23291 kPa | 1002.4
23325 kPa | 1002.5
23359 kPa | 1002.5
23398 kPa | 1002.5
24292 kPa | 1003
24323 kPa | 1003
24354 kPa | 1003.1
24390 kPa | 1002.9
24841 kPa | 1003.3
24870 kPa | 1003.4
24905 kPa | 1003.4
24964 kPa | 1003.4
25000 kPa | 1003.5
25312 kPa | 1003.6
25349 kPa | 1003.7
25380 kPa | 1003.6
25410 kPa | 1003.8
25447 kPa | 1003.7
25478 kPa | 1003.7
25518 kPa | 1003.7
25545 kPa | 1003.9
25582 kPa | 1003.9
25614 kPa | 1003.7
25643 kPa | 1003.8
25916 kPa | 1003.9
25947 kPa | 1003.9
25973 kPa | 1004.1
26004 kPa | 1004
26030 kPa | 1004.2
26056 kPa | 1004
26088 kPa | 1004.1
26114 kPa | 1004.1
26140 kPa | 1004.1
26167 kPa | 1004.2
26199 kPa | 1004.1
26225 kPa | 1004.2
26258 kPa | 1004.3
26285 kPa | 1004.1
26312 kPa | 1004.2
26339 kPa | 1004.2
26371 kPa | 1004.2
26399 kPa | 1004.2
26427 kPa | 1004.2
26460 kPa | 1004.3
26488 kPa | 1004.3
26520 kPa | 1004.3
26545 kPa | 1004.4
26569 kPa | 1004.3
26593 kPa | 1004.4
26623 kPa | 1004.3
26648 kPa | 1004.2
26672 kPa | 1004.4
26701 kPa | 1004.4
26726 kPa | 1004.3
26751 kPa | 1004.5
26776 kPa | 1004.4
26806 kPa | 1004.4
26830 kPa | 1004.4
26856 kPa | 1004.5
26885 kPa | 1004.5
26910 kPa | 1004.5
26936 kPa | 1004.7
26966 kPa | 1004.6
26991 kPa | 1004.4
27016 kPa | 1004.6
27041 kPa | 1004.7
27071 kPa | 1004.6
27097 kPa | 1004.6
27127 kPa | 1004.5
27152 kPa | 1004.5
27178 kPa | 1004.7
27208 kPa | 1004.8
27234 kPa | 1004.7
27260 kPa | 1004.7
27291 kPa | 1004.6
27317 kPa | 1004.6
27343 kPa | 1004.7
27369 kPa | 1004.9
27400 kPa | 1004.9
27426 kPa | 1004.8
27458 kPa | 1004.7
27484 kPa | 1004.8
27511 kPa | 1004.8
27537 kPa | 1004.8
27564 kPa | 1004.8
27595 kPa | 1004.9
27621 kPa | 1004.9
27654 kPa | 1005
27682 kPa | 1004.9
27708 kPa | 1005
27734 kPa | 1004.9
27761 kPa | 1005
27793 kPa | 1005
27820 kPa | 1005.1
27852 kPa | 1005.1
27879 kPa | 1005.1
27906 kPa | 1005
27938 kPa | 1005
27965 kPa | 1005.2
27993 kPa | 1005.2
28027 kPa | 1005.2
28056 kPa | 1005
28083 kPa | 1005.1
28110 kPa | 1005.1
28143 kPa | 1005.1
28171 kPa | 1005.3
28199 kPa | 1005.3
28227 kPa | 1005.2
28260 kPa | 1005.2
28288 kPa | 1005.2
28317 kPa | 1005.3
28351 kPa | 1005.4
28379 kPa | 1005.3
28409 kPa | 1005.3
28443 kPa | 1005.3
28471 kPa | 1005.3
28500 kPa | 1005.4
28535 kPa | 1005.4
28564 kPa | 1005.4
28594 kPa | 1005.5
28658 kPa | 1005.5
28687 kPa | 1005.5
28718 kPa | 1005.5
28743 kPa | 1005.5
28769 kPa | 1005.6
28800 kPa | 1005.6
28826 kPa | 1005.5
28851 kPa | 1005.6
28877 kPa | 1005.6
28909 kPa | 1005.6
29460 kPa | 1006.1
29484 kPa | 1005.9
29506 kPa | 1005.9
29534 kPa | 1006
29556 kPa | 1006
29580 kPa | 1006
29607 kPa | 1006
29630 kPa | 1006
29658 kPa | 1006.1
29682 kPa | 1006.1
29705 kPa | 1006.1
29729 kPa | 1006
29756 kPa | 1006
29780 kPa | 1006.1
29804 kPa | 1006.2
29831 kPa | 1006.2
29856 kPa | 1006.1
29879 kPa | 1006.1
29902 kPa | 1006.2
29931 kPa | 1006.1
29954 kPa | 1006.1
29983 kPa | 1006.2
30006 kPa | 1006.3
30030 kPa | 1006.3
30059 kPa | 1006.2
30083 kPa | 1006.3
30108 kPa | 1006.3
30132 kPa | 1006.3
30161 kPa | 1006.4
30185 kPa | 1006.4
30209 kPa | 1006.2
30233 kPa | 1006.3
30262 kPa | 1006.3
30287 kPa | 1006.3
31166 kPa | 1006.8
31197 kPa | 1006.8
31224 kPa | 1006.8
31255 kPa | 1006.9
31283 kPa | 1006.9
31310 kPa | 1006.9
31337 kPa | 1006.9
31370 kPa | 1007
31398 kPa | 1007
31426 kPa | 1007
31459 kPa | 1006.9
31483 kPa | 1007.1
31506 kPa | 1007.1
31534 kPa | 1006.9
31556 kPa | 1007.1
31580 kPa | 1007
31608 kPa | 1007.1
31632 kPa | 1007.1
31656 kPa | 1007.2
31683 kPa | 1007.1
31701 kPa | 1007.2
31719 kPa | 1007.1
31737 kPa | 1007.2
31758 kPa | 1007.1
31777 kPa | 1007.2
31795 kPa | 1007.2
31814 kPa | 1007.4
31835 kPa | 1007.2
31853 kPa | 1007.2
31875 kPa | 1007.2
31893 kPa | 1007.3
31911 kPa | 1007.3
31933 kPa | 1007.2
31951 kPa | 1007.3
31969 kPa | 1007.3
31990 kPa | 1007.5
32009 kPa | 1007.4
32027 kPa | 1007.3
32049 kPa | 1007.3
32068 kPa | 1007.3
32086 kPa | 1007.4
32104 kPa | 1007.4
32127 kPa | 1007.5
32145 kPa | 1007.4
32167 kPa | 1007.4
32186 kPa | 1007.4
32204 kPa | 1007.4
32226 kPa | 1007.5
32244 kPa | 1007.4
32403 kPa | 1007.6
32426 kPa | 1007.6
